Experimental data from paper PMC6332397, “Anti-Protozoal Activities of Cembrane-Type Diterpenes from Vietnamese Soft Corals” (Molecules, 2015).
Where “and” joins values, the source holds several entries; their conditions need not be identical. Equal values may be shown once. Read-outs that look alike come from different tables or passages of the source.

Experiments:
T. brucei = conditions: cited from earlier work
malarial parasite = system: malarial parasite; design: method as in PMID 21157686; conditions: cited from earlier work
[1] = system: T. b. rhodesiense STIB 900 bloodstream forms; experiment: Anti-trypanosomal activity on T. brucei rhodesiense (Alamar blue); type: cell-based, Trypanosoma brucei rhodesiense
Description: Minimum Essential Medium with Earle’s salts (50.0 µL) supplemented with 0.2 mM 2-mercaptoethanol, 1.0 mM Na pyruvate and 15% heat-inactivated horse serum was added to each well of a 96-well microtiter plate. Serial drug dilutions of eleven 3-fold steps covering a range from 100 to 0.002 µM were prepared. Then 10^4 bloodstream forms of T. b. rhodesiense STIB 900 in 50.0 µL of medium were added to each well and the plate incubated at 37 °C under a 5% CO2 atmosphere for 72 h. Alamar blue solution (10.0 µL of a solution of 12.5 mg resazurin dissolved in 100 mL distilled water) were then added to each well and incubation continued for a further 2–4 h. The plate was then read in a Spectramax Gemini XS microplate fluorometer (Molecular Devices Corporation, Sunnyvale, CA, USA) using an excitation wavelength of 536 nm and emission wavelength of 588 nm. Fluorescence development was measured and expressed as percentage of the control. Data were transferred into the graphic programme Softmax Pro (Molecular Devices), which calculated IC50 values.

[2] = Cytotoxicity assay against L6 cells; type: cell-based; conditions: rat skeletal myoblast L6, mean ± margin of deviation of two independent determinations
Description: Cytotoxicity was assessed using rat skeletal myoblasts (L6 cells) and a similar protocol as used for the Tbr assay. […] All following steps were according to the T. b. rhodesiense protocol (see Section 3.3. above).

[3] = system: L. donovani amastigotes (strain MHOM/ET/67/L82); experiment: Antileishmanial activity on L. donovani (axenic amastigote assay); type: cell-based, Leishmania donovani; conditions: for IC50: 72 h, axenic amastigotes, mean ± margin of deviation of two independent determinations
Description: Fifty µL of SM medium at pH 5.4 supplemented with 10% heat-inactivated FBS, was added to each well of a 96-well microtiter plate. Serial drug dilutions were prepared covering a range from 100.0 to 0.002 µM. Then 10^5 axenically grown L. donovani amastigotes (strain MHOM/ET/67/L82) in 50.0 µL medium were added to each well and the plate incubated at 37 °C under a 5% CO2 atmosphere for 72 h. Resazurin solution (10.0 µL, 12.5 mg resazurin dissolved in 100 mL distilled water) were then added to each well and incubation continued for a further 2–4 h. The plate was then read in a Spectramax Gemini XS microplate fluorometer (Molecular Devices, Sunnyvale, CA, USA) using an excitation wavelength of 536 nm and emission wavelength of 588 nm. Fluorescence development was measured and expressed as percentage of the control. Data were transferred into the graphic programme Softmax Pro (Molecular Devices) which calculated IC50 values from the sigmoidal inhibition curves.

[4] = system: P. falciparum NF54 strain; experiment: Antiplasmodial activity, [3H]-hypoxanthine incorporation assay; type: cell-based, Plasmodium falciparum
Description: Antiplasmodial activity was determined using the NF54 strain of P. falciparum (drug sensitive). A modification of the [^3H]-hypoxanthine incorporation assay was used. […] After 48 h of incubation at 37 °C in a reduced oxygen atmosphere, 0.5 μCi ^3H-hypoxanthine was added to each well. Cultures were incubated for a further 24 h before they were harvested onto glass-fiber filters and washed with distilled water. The radioactivity was counted using a Betaplate™ liquid scintillation counter (Wallac, Zurich, Switzerland). […] From the sigmoidal inhibition curves IC50 values were calculated. Assays were run in duplicate and repeated once.

[5] = Trypanosoma brucei, 72 h; mean ± margin of deviation of two independent determinations; read-out: IC50 Values T. b. rhodesiense
[6] = L6 cells (rat skeletal myoblasts)
[7] = Plasmodium falciparum, NF54, NF54 strain, mean ± margin of deviation of two independent determinations, read-out: IC50 Values P. falciparum
[8] = Plasmodium falciparum, NF54, read-out: IC50 Values P. falciparum
[9] = 72 h; mean ± margin of deviation of two independent determinations; read-out: IC50 Values T. b. rhodesiense

Row | SMILES | Activity against bloodstream forms of T. brucei (in words) [1] | IC50 [1, 5] [µM] | IC50 [2, 6] [µM] | IC50 [4, 7] [µM] | other results
1 | C/C1=C\CC/C(C)=C/C[C@](O)(C(C)C)CC/C(C)=C/CC1 [serratol, reference compound] |  |  |  |  | In vitro activity against T. brucei (in words) (T. brucei): also showed such activity; Activity against the malarial parasite (in words) (malarial parasite): some activity
2 | C=C1CO[C@H]2/C=C(\C)CC[C@@H](O)[C@@](C)(O)C/C=C/[C@](C)(O)CC[C@@]12O [Compound 8, lobocrasol C] | showed activity | 9.37 ± 0.74 | 40.5 ± 7.75 | 7.37 ± 0.35 | Antileishmanial activity (in words) [3]: strongly and selectively active; IC50 ([3]; Leishmania donovani): < 0.2 µM; IC50 [3]: 0.17 ± 0.05 µM
3 | CCN(CC)CCCC(C)Nc1ccnc2cc(Cl)ccc12 (centres unmarked) [Chloroquine, reference compound] |  |  |  |  | IC50 [2]: 120 ± 27.5 µM; IC50 [4, 8]: 0.004 µM
4 | C=C1CCC2(O)C(=C)COC2C=C(C)CCC(O)C2(C)CCC1O2 (centres unmarked) [Compound 13, crassumol E] | showed activity | ≤ 1 | 43 ± 2.6 | 7.43 ± 0.86 | IC50 [1, 9]: 0.72 ± 0.04 µM; Selectivity index, times more active against Tbr than against L6 cells ([1]; L6 vs Tbr): 60
5 | C=C(C)C1CC(=O)CC2OC(C)(CC2=O)CC2C=C(C(=O)O2)C(OC)C1 (stereo not drawn) [Compound 21, 13-Epi-scabrolide C] | showed activity | 11.8 ± 4.46 | 47.5 ± 6 |  | 
6 | C/C1=C\[C@@H]2O[C@@H](O)[C@@]3(C)O[C@@]23CC/C(C)=C/CC[C@](C)(O)[C@H](O)CC1 [Compound 7, lobocrasol B] |  |  |  |  | Antileishmanial activity (in words) [3]: devoid of antileishmanial activity
7 | C=C1CCC2=C(C)C(=O)OC2C=C(C)CCC(O)C2(C)CCC1O2 (centres unmarked) [Compound 15, Crassumol G] | showed activity | 12.2 ± 0.1 | 33.2 ± 13.5 | 7.57 ± 0.59 | 
8 | Nc1nc(N)nc(Nc2ccc([As]3SCC(CO)S3)cc2)n1 (centres unmarked) [Melarsoprol, reference compound] |  |  |  |  | IC50 ([1]; Trypanosoma brucei, 72 h, read-out: IC50 Values T. b. rhodesiense): 0.005 µM; IC50 [2]: 28.9 ± 9.3 µM
9 | COC(=O)C(C)C1=CC=C(C)CCC2OC2(C)CCC=C(C)CC1 (stereo not drawn) [Compound 1, 7S,8S-epoxy-1,3,11-cembratriene-16-oic methyl ester] | showed activity | ≤ 1 | > 54 | 22.95 ± 0.15 | IC50 [1, 9]: 1 ± 0.19 µM
10 | C=C1CO[C@H]2/C=C(\C)CC[C@@H]3O[C@]3(C)CC/C=C(\C)CC[C@@]12O [Compound 11, laevigatol B] |  |  |  |  | In vitro activity against T. brucei (in words) (T. brucei): active
11 | CCCCCCCCCCCCCCCCOP(=O)([O-])OCC[N+](C)(C)C [Miltefosine, reference compound] |  |  | 143 ± 35.3 |  | IC50 ([3]; Leishmania donovani): 0.14 ± 0.05 µM
12 | C=C1CCC(C(C)C)C=CC(C)(O)CC=CC(C)(O)CCC1O [Compound 16, (1S,2E,4S,6E,8S,11S)-2,6,12(20)-cembrantriene-4,8,11-triol] | showed activity | ≤ 1 | 48.6 ± 3.45 |  | IC50 [1, 9]: 0.65 ± 0.01 µM; Selectivity index, times more active against Tbr than against L6 cells ([1]; L6 vs Tbr): 75
13 | C=C(C)C1CC=C(C(=O)OC)CC(=O)CC(C)(O)C(O)C2=CC(C(=O)OC)=C(C1)O2 (centres unmarked) [Compound 17, Sinumaximol A] |  |  |  |  | IC50 ([1]; Trypanosoma brucei; 72 h; mean ± margin of deviation of two independent determinations; read-out: IC50 Values T. b. rhodesiense): > 20 µM; IC50 [2]: 45 ± 2.9 µM; IC50 [4, 8]: 7.2 ± 0.71 µM
14 | C/C1=C\[C@@H]2O[C@@H](O)[C@@]3(C)O[C@@]23CC/C(C)=C/CC[C@](C)(O)[C@@H](O)CC1 [Compound 6, Lobocrasol A] | showed activity | 9.97 ± 0.64 | 56 ± 3.65 |  | Antileishmanial activity (in words) [3]: strongly and selectively active; IC50 ([3]; Leishmania donovani): < 0.2 µM; IC50 [3]: 0.18 ± 0.02 µM
15 | CC1=C2CCC3(C)OC2(OC1)C1C3CCC(C)(O)C2CCC1(C)O2 (centres unmarked) [Compound 12, crassumol D] | showed activity | ≤ 1 | 58.7 ± 1 |  | IC50 [1, 9]: 0.61 ± 0.01 µM; Selectivity index, times more active against Tbr than against L6 cells ([1]; L6 vs Tbr): 96
16 | C=C(C)C1CCC23OC2C(CC(C)(O)C=C2C=C(C(=O)OC)C(OC)(C1)O2)OC3=O (centres unmarked) [Compound 18, Sinumaximol C] | showed activity | 9.88 ± 1.93 | 28.7 ± 9.95 |  | 
17 | CC1=CCCC(C)(O)C=CC(C(C)C)CCC(C)=CCC1 [Compound 2, (1R,4R,2E,7E,11E)-cembra-2,7,11-trien-4-ol] | showed activity | ≤ 1 | 49.4 ± 5.2 | 14.8 ± 0.9 | IC50 [1, 9]: 1.14 ± 0.5 µM; Selectivity index, times more active against Tbr than against L6 cells ([1]; L6 vs Tbr): 43
18 | C/C1=C\[C@@H]2O[C@@H](O)[C@@]3(C)O[C@@]23CC/C(C)=C/CC[C@@]2(C)O[C@H]2CC1 [Compound 10, laevigatol A] |  | > 20 | 28.8 ± 10.3 | 3 | Selectivity index SI = IC50(L6)/IC50(parasite), P. falciparum ([4]; L6 vs Pf): 9.52; IC50 ([4]; NF54 strain, mean ± margin of deviation of two independent determinations, read-out: IC50 Values P. falciparum): < 5 µM and 3.02 µM
